The source made the active and inactive calls. The calls are words filed in the database; no cut-off is given here.
Key:
[1] = biological target: T1, Potassium channel subfamily K member 3 (Homo sapiens, UniProt O14649); assay: Inhibition of human TASK-1 expressed in Xenopus laevis oocytes assessed as inhibition of channel current at 10 uM at +40mV holding potential by two-electrode voltage clamp assay; assay type: cell-based; details: Oocyte
Target sequence in this assay (O14649 whole entry, looked up): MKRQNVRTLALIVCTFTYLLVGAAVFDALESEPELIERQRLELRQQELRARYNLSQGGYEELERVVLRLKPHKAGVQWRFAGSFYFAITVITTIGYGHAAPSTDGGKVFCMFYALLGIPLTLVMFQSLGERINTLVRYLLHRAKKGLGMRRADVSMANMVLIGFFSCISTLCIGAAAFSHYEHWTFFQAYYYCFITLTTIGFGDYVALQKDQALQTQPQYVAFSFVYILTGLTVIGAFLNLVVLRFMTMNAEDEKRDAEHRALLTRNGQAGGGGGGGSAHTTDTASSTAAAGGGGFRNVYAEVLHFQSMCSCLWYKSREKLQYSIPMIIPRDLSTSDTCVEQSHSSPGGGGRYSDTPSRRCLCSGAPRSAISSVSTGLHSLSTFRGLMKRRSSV

[2] = biological target: T1, Potassium channel subfamily K member 3; assay: Inhibition of human TASK-1 expressed in Xenopus laevis oocytes assessed as inhibition of channel current at +40mV holding potential by two-electrode voltage clamp assay; assay type: cell-based, Oocyte
Target sequence in this assay (O14649 whole entry): as the sequence (O14649 whole entry, looked up) above

[3] = biological target: T2, Potassium channel subfamily K member 9 (Homo sapiens, UniProt Q9NPC2); assay: Inhibition of human TASK-3 expressed in Xenopus laevis oocytes assessed as inhibition of channel current at +40mV holding potential by two-electrode voltage clamp assay; assay type: cell-based, Oocyte
[4] = biological target: T2, Potassium channel subfamily K member 9; assay: Inhibition of human TASK-3 expressed in Xenopus laevis oocytes assessed as inhibition of channel current at 10 uM at +40mV holding potential by two-electrode voltage clamp assay; assay type: cell-based; details: Oocyte
[5] = test system: MCF7; assay: Antiproliferative activity against human MCF7 cells with shBP9 induced TASK-3 knockdown assessed as inhibition of cell proliferation at 0.148 uM incubated for 48 to 72 hrs by trypan blue exclusion method; assay type: functional, cell-based; details: time 48-72 hrs
[6] = test system: MCF7; assay: Antiproliferative activity against human MCF7 cells with wild type TASK-1 expressing GFP induced by shGFP assessed as inhibition of cell proliferation at 0.148 uM incubated for 24 to 72 hrs by trypan blue exclusion method; assay type: functional, cell-based; details: time 24-72 hrs
[7] = test system: MCF7; assay: Antiproliferative activity against human MCF7 cells with shBP3 induced TASK-1 knockdown assessed as inhibition of cell proliferation at 0.148 uM incubated for 24 to 72 hrs by trypan blue exclusion method; assay type: functional, cell-based; details: time 24-72 hrs
[8] = test system: MCF7; assay: Antiproliferative activity against human MCF7 cells assessed as inhibition of cell proliferation at 10 uM incubated for 4 days by MTT assay; assay type: functional; parameters: scale not given: the % may be the effect or the level left; details: time 4 day

T2 sequence (Q9NPC2 whole entry): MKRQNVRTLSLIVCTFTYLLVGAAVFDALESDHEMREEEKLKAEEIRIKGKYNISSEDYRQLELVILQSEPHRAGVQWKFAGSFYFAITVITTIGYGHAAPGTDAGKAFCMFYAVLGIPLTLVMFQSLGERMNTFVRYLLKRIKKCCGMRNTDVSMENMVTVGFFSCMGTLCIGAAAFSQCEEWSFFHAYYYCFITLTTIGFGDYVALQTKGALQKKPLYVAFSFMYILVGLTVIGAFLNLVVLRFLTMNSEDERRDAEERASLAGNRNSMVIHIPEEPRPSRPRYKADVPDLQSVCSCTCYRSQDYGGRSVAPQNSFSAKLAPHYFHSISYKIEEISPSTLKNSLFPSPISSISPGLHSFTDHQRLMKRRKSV

O=C(Nc1cccc(C(=O)Nc2ccc(F)cc2)c1)c1ccccc1
inhibition [1]: 25%

CCCS(=O)(=O)Nc1ccccc1C(=O)N[C@H](CC)c1ccc(OC)nc1
IC50 [2]: 0.2 µM

O=C(Nc1cccc(C(=O)Nc2nccs2)c1)c1ccccc1
IC50 [3]: 7.17 µM | inhibition [4]: Active | inhibition [1]: Active | IC50 [2]: 0.388 µM

COc1ccc(NC(=O)c2cccc(NC(=O)c3ccccc3)c2)cc1
inhibition [1]: 10%

O=C(NCc1ccccc1)c1cccc(NC(=O)c2ccccc2)c1
inhibition [4]: Active | inhibition [1]: Active

O=C(Nc1cccc(C(=O)Nc2ncccc2O)c1)c1ccccc1
inhibition [4]: Active | inhibition [1]: Active

O=C(c1ccccc1F)N1CCN(Cc2c(-c3ccc(Br)cc3)nc3ccccn23)CC1
IC50 [2]: 9.5 µM

CCc1ccccc1NC(=O)c1cccc(NC(=O)c2ccccc2)c1
Activity [5]: Active | Activity [6]: Active | IC50 [3]: 1.75 µM | Activity [7]: Active | inhibition [4]: Active | Activity [8]: 45% | inhibition [1]: Active | IC50 [2]: 0.148 µM

O=C(c1cccc(OC(F)(F)F)n1)N1CCN(Cc2c(-c3ccc(Cl)cc3)nc3ccccn23)CC1
IC50 [2]: 7.6 µM
